One assay concerns IL-1β promoter. The experiment in a line: IL-1β promoter (HT) luciferase gene reporter assay, transient transfection of HeLa-S3 cells with Spi-1 and C/EBPβ expression vectors. Type of assay: cell-based, human. Conditions: for inhibition of cooperative transactivation of the IL-1β promoter: HT reporter with Spi-1 and C/EBP, absence of full-length IE2, titrated fragment vector, FIG. 2A. The source says: FIGS. 1A-1D depict cooperative transactivation of the IL-1B promoter by Spi-1, C/EBPβ and IE2. FIG. 1A is a schematic of the IL-1B promoter showing two composite Spi-1-C/EBPβ binding sites in proximity to the transcription start site. The full-length promoter (HT) was spliced into a vector containing the gene reporter firefly luciferase and used in transient transfection assays in HeLa-S3 cells. FIG. 1B depicts dose-response of HT reporter to titrated Spi-1 expression vector and a fixed amount of cotransfected C/EBPβ expression vector. FIG. 1C depicts dose-response of HT reporter to titrated C/EBPβ expression vector and a fixed amount of Spi-1 expression vector. FIG. 1D depicts functional cooperativity with IE2. The HT reporter was contransfected with titrated Spi-1 expression vector (open bars) or fixed amount of C/EBPβ expression vector (checkerboard bars), or both C/EBPβ and IE2 expression vectors (hatched bars).
The data shown here are pooled from three independent experiments. […] The indicated transfection groups were con-transfected with titrated amounts of IE2 291-364 or 291-343 expression vectors. […] The experiment described by FIG. 2B is similar to that described by FIG. 2A except that wild type IE2 was also added to the indicated transfection groups. These are pooled data from three independent experiments.
• Cell Culture. HeLa cells (Strain S3) were obtained by ATCC and cultured per their recommendations. Briefly, the cells were grown in Dulbecco modified Eagle medium (DMEM) containing 10% FBS and 0.5% penicillin-streptomycin. Every three days cells were split 1:10 using Trypsin (0.25%) EDTA (0.1%) (Cellgro) to detach the cells. • Reporter Constructs and Expression Vectors. The human IL1B promoter regions (−131+12 and −59/+12 and its mutants (FIG. 1A) were generated by polymerase chain reaction (PCR) and inserted into pGL3-Basic vector (Promega) at Mlu I and BgI II or Hind III sites to construct promoter-luciferase reporter plasmids. The HCMV IE expression vectors pEQ273 and pEQ326 contain the genomic HCMV IE DNA inserted into pGEM1 vector. The plasmids expressing full-length NFIL6 and a truncated version with an internal deletion between the two Spl I restriction sites were constructed by inserting the NFIL6 cDNAs into expression vectors pcDNA3.1 or pcDNA1 (Invitrogen) (Tsukada, J., K. Saito, et al. (1994) Mol Cell Biol 14(11): 7285-97). […] Twenty-four or forty-eight hours after transfection, the activities of luciferase and β-galactosidae activity were determined (using reagents from Promega) to measure promoter activity and allow normalization of luciferase activity in each experiment, respectively. […]
In general terms: In a reporter assay the amount or activity of a reporter protein is the signal.

The next assay deals with T1, Spi-1 ETS domain (Homo sapiens, UniProt P17947).
T1 construct: made in house; host or cells: in vitro translation, rabbit reticulocyte lysate (TNT T7 Quick Coupled, Promega), 35S-methionine label
The experiment in a line: GST fusion pull-down assay with radiolabeled Spi-1 ETS domain probe. Type of assay: binding. Conditions: autoradiography, FIG. 5. On the procedure: (§1) Interaction of the indicated probes is retained to the control peptides IE2 291-343 and IE2 291-364.
(§2) • Cell Culture. HeLa cells (Strain S3) were obtained by ATCC and cultured per their recommendations. Briefly, the cells were grown in Dulbecco modified Eagle medium (DMEM) containing 10% FBS and 0.5% penicillin-streptomycin. Every three days cells were split 1:10 using Trypsin (0.25%) EDTA (0.1%) (Cellgro) to detach the cells. • Reporter Constructs and Expression Vectors. The human IL1B promoter regions (−131+12 and −59/+12 and its mutants (FIG. 1A) were generated by polymerase chain reaction (PCR) and inserted into pGL3-Basic vector (Promega) at Mlu I and BgI II or Hind III sites to construct promoter-luciferase reporter plasmids. The HCMV IE expression vectors pEQ273 and pEQ326 contain the genomic HCMV IE DNA inserted into pGEM1 vector. The plasmids expressing full-length NFIL6 and a truncated version with an internal deletion between the two Spl I restriction sites were constructed by inserting the NFIL6 cDNAs into expression vectors pcDNA3.1 or pcDNA1 (Invitrogen) (Tsukada, J., K. Saito, et al. (1994) Mol Cell Biol 14(11): 7285-97). The expression vector containing the bZIP region of NFIL6 was constructed by inserting a PCR-amplified fragment of NFIL6 encoding amino acids 269-345 into pcDNA3.1 (Yang, Z., N. Wara-Aswapati, et al. (2000) J Biol Chem 275(28): 21272-7). • Transfections and Reporter Gene Assays. HeLa (S3) cells were transfected with expression vectors and luciferase reporter plasmids using Effectene reagents (Qiagen Inc.). Cells were seeded into 24-well plates 24 hours before transfection. […] Expression from these vectors was confirmed by western blotting. Twenty-four or forty-eight hours after transfection, the activities of luciferase and β-galactosidae activity were determined (using reagents from Promega) to measure promoter activity and allow normalization of luciferase activity in each experiment, respectively. […] Gels were stained with SimplyBlue Safestain (Invitrogen) for protein determination and analyzed for binding using autoradiography. […]

Another assay addresses T2, C/EBPβ bZIP domain (Homo sapiens, UniProt P17676).
T2 construct: PCR-amplified fragment of NFIL6 encoding amino acids 269-345 into pcDNA3.1; made in house; host or cells: in vitro translation, rabbit reticulocyte lysate (TNT T7 Quick Coupled, Promega), 35S-methionine label
The experiment in a line: GST fusion pull-down assay with radiolabeled C/EBPβ bZIP domain probe. Type of assay: binding. Particulars: autoradiography, FIG. 5. On the procedure:
as §1, §2

The target in a further assay is T3, IE2 (Human cytomegalovirus, UniProt P19893).
T3 construct: made in house; host or cells: in vitro translation, rabbit reticulocyte lysate (TNT T7 Quick Coupled, Promega), 35S-methionine label
T3 sequence (P19893 whole entry): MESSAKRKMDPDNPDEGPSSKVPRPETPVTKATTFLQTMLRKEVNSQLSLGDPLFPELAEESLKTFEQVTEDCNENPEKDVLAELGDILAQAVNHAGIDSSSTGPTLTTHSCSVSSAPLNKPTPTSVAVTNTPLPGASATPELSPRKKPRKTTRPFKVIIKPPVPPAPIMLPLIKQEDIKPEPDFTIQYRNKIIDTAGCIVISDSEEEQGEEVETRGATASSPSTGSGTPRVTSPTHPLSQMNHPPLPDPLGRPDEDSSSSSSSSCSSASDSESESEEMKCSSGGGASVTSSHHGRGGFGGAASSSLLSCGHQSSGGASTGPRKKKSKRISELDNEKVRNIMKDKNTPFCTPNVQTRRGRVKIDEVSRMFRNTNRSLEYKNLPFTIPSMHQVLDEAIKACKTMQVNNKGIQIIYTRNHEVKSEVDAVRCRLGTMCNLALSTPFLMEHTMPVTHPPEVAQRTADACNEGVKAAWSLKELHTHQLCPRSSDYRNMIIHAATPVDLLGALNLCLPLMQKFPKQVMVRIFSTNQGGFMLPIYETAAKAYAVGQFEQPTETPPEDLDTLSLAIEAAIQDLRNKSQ
The experiment in a line: GST fusion pull-down assay with radiolabeled IE2 probe. Conditions: autoradiography, FIG. 5. Type of assay: binding. On the procedure:
as §1, §2

Another assay deals with GFP expression vector. The experiment in a line: Specificity control: expression of control GFP vector by flow cytometry in HeLa-S3 cells. Type of assay: cell-based. Conditions: HeLa-S3, cotransfection, 24 hours, FIG. 4D. On the procedure:
(§3) FIGS. 4A-4D. […] FIG. 4D is another specificity control showing that a control GFP expression vector was not affected by either IE2 291-343 or IE2 291-364. HeLa-S3 cells were transfected with both a GFP expression vector and cotransfected with either E2 291-343 or IE 291-364 expression vectors and GFP expression analyzed 24 hours later by a fluorescence activated cell sorter.
(§4) Because the IE2 291-364 region was previously mapped as one of three TBP binding sites on IE2, it was possible that the inhibitory function was due to interaction with TBP. To exclude this possibility, the expression of two other genes that contain TATA boxes in their promoters were investigated. First, an observed the expression of C/EBPβ from the expression vector by western blot (FIG. 4C) was conducted. […] Second, His-tagged inhibitors were cotransfected with ev GFP and the geometric mean brightness of transfected cells measured by flow cytometry (FIG. 4D). […] It is believed that the basis for the interaction is localized to residues 315-328 of the IE2 molecule because a variant of IE2 291-364 missing the 315-328 region (delA) lacks binding to Spi-1 ETS domain in a GST fusion pull-down assay (FIG. 5).

Another assay relates to IL-1β promoter reporter. The experiment in a line: Full-length IL-1β regulatory region luciferase reporter in LPS-stimulated RAW264.7 monocytic cells. Type of assay: cell-based. The source says:
FIG. 3 depicts that IE2 291-364 fragment inhibits full-length IL-1β reporter in the monocytic cell line RAW264.7. A luciferase gene reporter was made by splicing the native IL-1β upstream fragment (XT), which contains the enhancer through promoter sequences, upstream of the luciferase gene. This was cotransfected (in titrated doses) with pCDNA 3.1/V5-His empty vector (control) or pCDNA 3.1/V5-His IE2 291-364 by calcium phosphate precipitation into RAW 264.7 cells. To activate the reporter, cells were stimulated with LPS.
FIG. 6 depicts increasing amounts of vector expressing either IE2 291-364Δ315-328 or IE2 291-364 transfected into RAW cells with full length IL-1β regulatory protein as a luciferase reporter. After transient transfection by CaPO4, RAW cell lysates were used for measurement by luminometry and results normalized to β-galactosidase activity introduced by a co-transfected β-galactosidase expression vector to control for transfection efficiency. Values for IE2 291-364Δ315-328 are reported as percentages of relative luciferase activity compared to the wild-type fragment 315-264, as shown.
To further verify the effect of IE2 291-364, a test was conducted in the RAW 264.7 cell line. […] When the RAW 264.7 cell line was treated with the bacterial cell wall product LPS, it produced IL-1β similar to what normal monocytes would do. The IE2-291-364 peptide inhibited IL-1β promoter reporter by about 50% in this system (FIG. 3).
In order to more rigorously test the inhibitory capabilities of the IE2 peptides on IL1B gene expression, a complete monocyte-specific 3.8 kbp regulatory region of the IL1B gene containing both the LPS-responsive enhancer and the cell-type specific Spi-1-dependent promoter (Shirakawa, F., K. Saito, et al. (1993). Mol Cell Biol 13(3): 1332-44) was transfected as a luciferase reporter into LPS-treated RAW264.7 monocyte cells.

The test system of the next assay is C/EBPβ. The experiment in a line: Specificity control: C/EBPβ expression by western blot of transfected HeLa-S3 lysates. Type of assay: cell-based. Conditions: HeLa-S3 cell lysates, FIG. 4C. On the procedure:
as §3, §4
Background: In western blotting, separated proteins are transferred to a membrane and probed.

Entries after “also recorded” stand apart in the source; their conditions may differ. Ends that are not written are not given here.

T2 sequence (P17676 269-345): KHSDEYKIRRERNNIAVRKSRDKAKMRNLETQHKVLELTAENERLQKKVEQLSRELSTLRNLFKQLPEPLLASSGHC

With “IE2 291-343: hCMV IE2 protein amino acid residues 291-343”, the “inhibition of cooperative transactivation of the IL-1β promoter” value in the assay with IL-1β promoter is given as “inhibited”. In addition, the “interaction with Spi-1 ETS domain probe” value in the assay with Spi-1 ETS domain is “retained”. Besides, the “interaction with C/EBPβ bZIP domain probe” value with C/EBPβ bZIP domain was “retained”. For the same substance, the “interaction with IE2 probe” value in the assay with IE2 was “retained”. In addition, the “effect on GFP expression from control GFP vector” value with GFP expression vector is given as “not affected”.
“full length wild-type IE2: CMV encoded transactivator Immediate Early 2 protein, full length”: the “increase of IL-1β promoter reporter activity” value in the assay with IL-1β promoter (full length wild-type IE2 added to Spi-1 and C/EBPβ transfection, HeLa-S3, FIG. 1D) is reported as 4-10 fold.
On to “IE2 291-364: hCMV IE2 protein amino acid residues 291-364, expressed from vector (His tag or GST fusion)”, for which, in the assay on IL-1β promoter, the “inhibition of cooperative transactivation of the IL-1β promoter” value is “inhibited”. Moreover, the “dose dependence of inhibition of 3.8 kbp IL1B regulatory region reporter activity” value with IL-1β promoter reporter (LPS-treated RAW264.7, His-tagged expression vector, FIG. 6) is “dose-dependent inhibition”. In addition, the “inhibition of full-length IL-1β reporter (XT)” value with IL-1β promoter reporter (RAW264.7, LPS stimulated, cotransfected pCDNA 3.1/V5-His IE2 291-364, FIG. 3) is reported as “inhibits”. Further, the “inhibition of IL-1β promoter reporter” value in the assay on IL-1β promoter reporter (RAW 264.7 cells treated with LPS, FIG. 3) is “about 50%”. Further, the “interaction with Spi-1 ETS domain probe” value in the assay with Spi-1 ETS domain is listed as “retained”. The “interaction with C/EBPβ bZIP domain probe” value with C/EBPβ bZIP domain is “retained”. In addition, the “interaction with IE2 probe” value with IE2 is given as “retained”. Moreover, the “effect on expression of C/EBPβ protein (western blot)” value with C/EBPβ is recorded as “does not inhibit”. Also, the “effect on GFP expression from control GFP vector” value in the assay with GFP expression vector is on record as “not affected”.
As for “delA (SSHHGRGGFGGAASSSLLSCGHQSRISELDNEKVRNIMKDKNTPFCTPNVQTRRGRVKID; not fully specified; cysteine pairing not given here) [reference compound]”, the “interaction with Spi-1 ETS domain probe” value in the assay with Spi-1 ETS domain was “lacks binding; also recorded: loss of interaction”. In the assay with C/EBPβ bZIP domain, the “interaction with C/EBPβ bZIP domain probe” value is “loss of interaction”. For the same substance, in the assay with IE2, the “interaction with IE2 probe” value was “loss of interaction”.
On to “GFP-IE2 291-343 (SSHHGRGGFGGAASSSLLSCGHQSSGGASTGPRKKKSKRISELDNEKVRNIMK; also: GFP fusion)”, for which, in the assay on IL-1β promoter (Spi-1 and C/EBPβ transactivation, GFP-expressing cells purified by FACS, FIG. 4B), the “inhibition of IL-1β promoter (HT reporter) activity by GFP fusion product” value is “inhibition of IL-1β promoter activity”.

Values taken from patent US20070265201A1, “INHIBITORS OF IN[…] TRA[…] FROM HCMV PROTEIN IE2” (priority 2005, published 2007).
